From patent publication US20030139431A1 (priority 2001, published 2003)

Tests used:
hNPFF2 [1] = target: T1, hNPFF2 (Homo sapiens, UniProt Q9Y5X5); assay: Binding affinity at cloned recombinant human NPFF2 receptor
T1 construct: expressed in transfected cells

hNPFF1 [2] = target: T2, hNPFF1 (Homo sapiens, UniProt Q9GZQ6); assay: Binding affinity at cloned recombinant human NPFF1 receptor
T2 construct: expressed in transfected cells

rNPFF2 [3] = target: T3, rNPFF2 (Rattus norvegicus, UniProt Q9EQD2); assay: Binding affinity at cloned recombinant rat NPFF2 receptor
T3 construct: expressed in transfected cells

rNPFF2 [4] = target: T3, rNPFF2; assay: Functional assay (agonist potency, intrinsic activity) at cloned rat NPFF2 receptor; format: cell-based; details: for rNPFF2 IA (intrinsic activity): percent of maximum response elicited by neuropeptide FF, rat NPFF2; for EC50: recombinant rat NPFF2
Experimental: (§1) Intrinsic activity of a compound is measured as the percent of maximum response.

rNPFF1 [5] = target: T4, rNPFF1 (Rattus norvegicus, UniProt Q9EP86); assay: Binding affinity at cloned recombinant rat NPFF1 receptor
T4 construct: expressed in transfected cells

rNPFF1 [6] = target: T4, rNPFF1; assay: Functional assay (agonist potency, intrinsic activity) at cloned rat NPFF1 receptor; format: cell-based; details: for rNPFF1 IA (intrinsic activity): percent of maximum response elicited by neuropeptide FF, rat NPFF1; for EC50: recombinant rat NPFF1
Experimental: as §1

hNPFF2 [7] = target: T1, hNPFF2; assay: Functional assay (agonist potency, intrinsic activity) at cloned human NPFF2 receptor; format: cell-based; details: for hNPFF2 IA (intrinsic activity): percent of maximum response elicited by neuropeptide FF, human NPFF2; for EC50: recombinant human NPFF2
Experimental: as §1

hNPFF1 [8] = target: T2, hNPFF1; assay: Functional assay (agonist potency, intrinsic activity) at cloned human NPFF1 receptor; format: cell-based; details: for hNPFF1 IA (intrinsic activity): percent of maximum response elicited by neuropeptide FF, human NPFF1; for EC50: recombinant human NPFF1
Experimental: as §1

[9] = rat cloned NPFF receptors, based on IA and Ki

T3 sequence (Q9EQD2 whole entry): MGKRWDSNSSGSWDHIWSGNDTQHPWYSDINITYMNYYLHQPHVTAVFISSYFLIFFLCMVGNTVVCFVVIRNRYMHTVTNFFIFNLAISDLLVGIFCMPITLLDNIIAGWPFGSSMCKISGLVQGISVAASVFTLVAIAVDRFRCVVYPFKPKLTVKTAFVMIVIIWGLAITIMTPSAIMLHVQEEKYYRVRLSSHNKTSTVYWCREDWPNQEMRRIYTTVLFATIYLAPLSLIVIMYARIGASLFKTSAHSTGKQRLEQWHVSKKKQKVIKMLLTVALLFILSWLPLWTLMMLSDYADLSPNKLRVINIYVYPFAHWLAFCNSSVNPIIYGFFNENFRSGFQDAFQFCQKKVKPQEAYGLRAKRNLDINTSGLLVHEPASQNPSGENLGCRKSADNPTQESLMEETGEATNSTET
T1 sequence (Q9Y5X5 103-522): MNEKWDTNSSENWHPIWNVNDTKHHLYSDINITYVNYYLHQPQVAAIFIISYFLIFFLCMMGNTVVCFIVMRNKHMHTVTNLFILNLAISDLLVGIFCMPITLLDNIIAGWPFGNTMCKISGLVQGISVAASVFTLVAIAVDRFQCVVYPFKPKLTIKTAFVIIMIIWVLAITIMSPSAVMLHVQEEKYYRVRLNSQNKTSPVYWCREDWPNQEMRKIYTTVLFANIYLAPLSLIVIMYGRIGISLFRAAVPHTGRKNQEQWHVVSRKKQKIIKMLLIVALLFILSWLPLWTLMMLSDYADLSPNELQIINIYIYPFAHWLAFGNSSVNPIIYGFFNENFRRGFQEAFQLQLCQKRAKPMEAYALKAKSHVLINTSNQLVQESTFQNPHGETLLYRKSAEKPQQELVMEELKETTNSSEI
T4 sequence (Q9EP86 whole entry): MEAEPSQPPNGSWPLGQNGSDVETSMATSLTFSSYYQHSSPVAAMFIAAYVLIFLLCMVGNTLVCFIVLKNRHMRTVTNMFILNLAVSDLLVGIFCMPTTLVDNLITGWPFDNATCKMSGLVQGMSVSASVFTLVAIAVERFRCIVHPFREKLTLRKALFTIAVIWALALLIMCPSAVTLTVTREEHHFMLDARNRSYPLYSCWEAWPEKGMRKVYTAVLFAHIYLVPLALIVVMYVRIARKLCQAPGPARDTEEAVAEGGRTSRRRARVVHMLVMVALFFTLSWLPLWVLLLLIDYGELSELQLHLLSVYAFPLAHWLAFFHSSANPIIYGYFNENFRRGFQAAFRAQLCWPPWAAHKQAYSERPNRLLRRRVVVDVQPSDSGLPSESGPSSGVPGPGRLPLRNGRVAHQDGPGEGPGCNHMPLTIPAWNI
T2 sequence (Q9GZQ6 whole entry): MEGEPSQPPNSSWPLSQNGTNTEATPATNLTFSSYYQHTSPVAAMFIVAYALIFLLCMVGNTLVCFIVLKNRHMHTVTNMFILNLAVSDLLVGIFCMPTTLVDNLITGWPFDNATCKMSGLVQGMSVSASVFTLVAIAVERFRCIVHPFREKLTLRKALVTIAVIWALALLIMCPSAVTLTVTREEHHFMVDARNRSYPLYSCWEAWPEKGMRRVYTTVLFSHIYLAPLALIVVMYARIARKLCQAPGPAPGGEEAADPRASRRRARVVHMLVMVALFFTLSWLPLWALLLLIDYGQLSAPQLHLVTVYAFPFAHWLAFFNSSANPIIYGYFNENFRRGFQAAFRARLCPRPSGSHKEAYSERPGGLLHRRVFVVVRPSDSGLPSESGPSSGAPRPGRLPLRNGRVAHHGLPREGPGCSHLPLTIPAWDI

SMILES	Ki (hNPFF2 [1])	Ki (hNPFF1 [2])	Ki (rNPFF2 [3])	rNPFF2 IA (intrinsic activity) (rNPFF2 [4])	EC50 (rNPFF2 [4])	Ki (rNPFF1 [5])	rNPFF1 IA (intrinsic activity) (rNPFF1 [6])	EC50 (rNPFF1 [6])	hNPFF2 IA (intrinsic activity) (hNPFF2 [7])	EC50 (hNPFF2 [7])	hNPFF1 IA (intrinsic activity) (hNPFF1 [8])	EC50 (hNPFF1 [8])	classification as agonist or antagonist at NPFF2 (rNPFF2 [4]; [9])	classification as agonist or antagonist at NPFF1 (rNPFF1 [6]; [9])
Cc1nc(NC(=N)N)nc2ccccc12 [Compound 1001, N-(4-methyl-2-quinazolinyl)guanidine]	2040 nM	240 nM	> 10000 nM	16% NPFF	3080 nM	202 nM	Inactive	> 10000 nM	–	–	–	–	–	–
Cc1nc(NC(=N)N)nc2ccc3ccccc3c12 [Compound 1007, N-(1-methylbenzo[f]quinazolin-3-yl)guanidine]	260 nM	53 nM	699 nM	66% NPFF	1300 nM	146 nM	Inactive	> 10000 nM	–	–	–	–	–	–
Cc1nc(NC(=N)N)nc2cc(-c3ccccc3)ccc12 [Compound 1023, N-(4-methyl-7-phenyl-2-quinazolinyl)guanidine]	2920 nM	228 nM	1020 nM	35% NPFF	3160 nM	4 nM	Inactive	> 10000 nM	43% NPFF	4110 nM	Inactive	> 10000 nM	–	–
Cc1nc(NC(=N)N)nc2cc(OC(F)(F)F)ccc12 [Compound 1036, N-[4-methyl-7-(trifluoromethoxy)-2-quinazolinyl]guanidine]	–	–	2460 nM	78% NPFF	369 nM	132 nM	Inactive	> 10000 nM	–	–	–	–	–	–
Cc1nc(NC(=N)N)nc2cc3c(cc12)C=CCC3 [Compound 1037, N-(4-methyl-8,9-dihydrobenzo[g]quinazolin-2-yl)guanidine]	–	–	824 nM	71% NPFF	3160 nM	143 nM	Inactive	> 10000 nM	–	–	–	–	–	–
CCCCCc1ccc2nc(NC(=N)N)nc(C)c2c1 [Compound 2001, N-(4-methyl-6-pentyl-2-quinazolinyl)guanidine]	376 nM	50 nM	221 nM	103% NPFF	97 nM	8 nM	71% NPFF	242 nM	84% NPFF	625 nM	Inactive	–	–	–
CCC(C)c1ccc2nc(NC(=N)N)nc(C)c2c1 (stereo not drawn) [Compound 2002, N-(6-sec-butyl-4-methyl-2-quinazolinyl)guanidine]	–	–	461 nM	92% NPFF	423 nM	77 nM	51% NPFF	250 nM	–	–	–	–	–	–
Cc1nc(NC(=N)N)nc2ccc(Cc3ccccc3)cc12 [Compound 2003, N-(6-benzyl-4-methyl-2-quinazolinyl)guanidine]	–	–	195 nM	89% NPFF	49 nM	371 nM	56% NPFF	171 nM	–	–	–	–	–	–
CCCCc1ccc2nc(NC(=N)N)nc(C)c2c1 [Compound 2004, N-(6-butyl-4-methyl-2-quinazolinyl)guanidine]	–	–	262 nM	101% NPFF	124 nM	392 nM	40% NPFF	194 nM	–	–	–	–	–	–
CCCCCCc1ccc2nc(NC(=N)N)nc(C)c2c1 [Compound 2005, N-(6-hexyl-4-methyl-2-quinazolinyl)guanidine]	–	–	268 nM	81% NPFF	105 nM	88 nM	56% NPFF	137 nM	–	–	–	–	–	–
CCCCCCCc1ccc2nc(NC(=N)N)nc(C)c2c1 [Compound 2006, N-(6-heptyl-4-methyl-2-quinazolinyl)guanidine]	–	–	3670 nM	47% NPFF	1950 nM	788 nM	38% NPFF	886 nM	–	–	–	–	–	–
Cc1ccc2c(C)nc(NC(=N)N)nc2c1 [Compound 3001, N-(4,7-dimethyl-2-quinazolinyl)guanidine]	1720 nM	46 nM	1220 nM	–	–	50 nM	–	–	Inactive	> 10000 nM	Inactive	> 10000 nM	antagonists	antagonists
Cc1ccc2nc(NC(=N)N)cc(C)c2c1 [Compound 4001, N-(4,6-dimethyl-2-quinolinyl)guanidine]	150 nM	21 nM	556 nM	68% NPFF	404 nM	30 nM	Inactive	> 10000 nM	–	–	–	–	–	–
CCc1ccc2nc(NC(=N)N)cc(C)c2c1 [Compound 4002, N-(6-ethyl-4-methyl-2-quinolinyl)guanidine]	232 nM	50 nM	308 nM	84% NPFF	125 nM	11 nM	Inactive	> 10000 nM	69% NPFF	314 nM	Inactive	> 10000 nM	–	–
Cc1cc(NC(=N)N)nc2ccc(-c3ccccc3)cc12 [Compound 4003, N-(4-methyl-6-phenyl-2-quinolinyl)guanidine]	2120 nM	207 nM	1250 nM	26% NPFF	3160 nM	176 nM	Inactive	> 10000 nM	–	–	–	–	–	–
COc1ccc2nc(NC(=N)N)cc(C)c2c1 [Compound 4004, N-(6-methoxy-4-methyl-2-quinolinyl)guanidine]	1210 nM	113 nM	2580 nM	65% NPFF	1530 nM	153 nM	Inactive	> 10000 nM	–	–	–	–	–	–
Cc1cc(NC(=N)N)nc2cc(F)ccc12 [Compound 4007, N-(7-fluoro-4-methyl-2-quinolinyl)guanidine]	–	–	619 nM	17% NPFF	2640 nM	44 nM	Inactive	> 10000 nM	–	–	–	–	–	–
Cc1cc(C)c2c(C)cc(NC(=N)N)nc2c1 [Compound 4008, N-(4,5,7-trimethyl-2-quinolinyl)guanidine]	514 nM	82 nM	882 nM	65% NPFF	411 nM	64 nM	Inactive	> 10000 nM	–	–	–	–	–	–
Cc1cc(NC(=N)N)nc2ccc3ccccc3c12 [Compound 4009, N-(1-methylbenzo[f]quinolin-3-yl)guanidine]	826 nM	144 nM	871 nM	70% NPFF	3160 nM	153 nM	Inactive	> 10000 nM	–	–	–	–	–	–
CCCCc1ccc2nc(NC(=N)N)cc(C)c2c1 [Compound 5001, N-(6-butyl-4-methyl-2-quinolinyl)guanidine]	–	–	115 nM	82% NPFF	69 nM	24 nM	28% NPFF	123 nM	–	–	–	–	–	–
CCCCCc1ccc2nc(NC(=N)N)cc(C)c2c1 [Compound 5002, N-(4-methyl-6-pentyl-2-quinolinyl)guanidine]	460 nM	40 nM	569 nM	90% NPFF	259 nM	30 nM	41% NPFF	157 nM	75% NPFF	1710 nM	Inactive	> 10000 nM	–	–
CCCCCCc1ccc2nc(NC(=N)N)cc(C)c2c1 [Compound 5003, N-(6-hexyl-4-methyl-2-quinolinyl)guanidine]	1170 nM	152 nM	4420 nM	57% NPFF	9990 nM	532 nM	27% NPFF	440 nM	45% NPFF	3160 nM	Inactive	> 10000 nM	–	–
Cc1cc(NC(=N)N)nc2c(C)cccc12 [Compound 6002, N-(4,8-dimethyl-2-quinolinyl)guanidine]	952 nM	157 nM	883 nM	Inactive	> 10000 nM	91 nM	Inactive	> 10000 nM	–	–	–	–	–	–
CCc1cc(NC(=N)N)nc2cc(C)ccc12 [Compound 6003, N-(4-ethyl-7-methyl-2-quinolinyl)guanidine]	113 nM	28 nM	203 nM	Inactive	> 10000 nM	21 nM	Inactive	> 10000 nM	–	–	–	–	–	–
